Measured values: BindingDB's records for patent US10457686 (Hoffmann-La Roche Inc., 2019)

Biological target: Cannabinoid receptor 1 (Homo sapiens, UniProt P21554)
Sequence (P21554 whole entry): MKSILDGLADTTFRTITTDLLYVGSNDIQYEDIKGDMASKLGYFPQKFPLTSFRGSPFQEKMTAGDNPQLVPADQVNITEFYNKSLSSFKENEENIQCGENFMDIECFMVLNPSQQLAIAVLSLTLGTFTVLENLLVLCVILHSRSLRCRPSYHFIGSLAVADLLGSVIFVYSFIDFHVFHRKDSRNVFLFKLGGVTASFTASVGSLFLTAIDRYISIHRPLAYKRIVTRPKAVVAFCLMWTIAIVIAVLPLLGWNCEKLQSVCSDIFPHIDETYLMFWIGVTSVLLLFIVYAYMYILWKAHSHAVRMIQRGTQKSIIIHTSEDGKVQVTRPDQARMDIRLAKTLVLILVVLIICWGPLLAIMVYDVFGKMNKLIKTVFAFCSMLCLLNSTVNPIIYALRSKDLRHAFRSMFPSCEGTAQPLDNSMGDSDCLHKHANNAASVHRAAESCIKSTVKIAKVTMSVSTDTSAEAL

Molecule `CC(C)(C)c1nc(N2CCC(F)(F)C2)c2nn(Cc3ccc(C4(C(F)(F)F)N=N4)cc3Cl)nc2n1` [US10457686, Example 1] has a Ki of over 10 µM.
